How the values were obtained:
Conditions in all cases: 72 h
HepG2 [1] = assay: drug sensitivity score (DSS) for viability; higher = more toxic; extreme values may be limits of the assay
Caco-2 [2] = assay: as above
Calu-3 [3] = assay: as above
U2OS [4] = assay: as above
Vero E6 [5] = assay: as above
HepG2 [6] = assay: relative viability EC50 (midpoint between 100% and the lowest measured viability); higher = less toxic
Caco-2 [7] = assay: as above
Calu-3 [8] = assay: as above
U2OS [9] = assay: as above
Vero E6 [10] = assay: as above
HepG2 [11] = assay: cell viability relative to DMSO; higher = less toxic
Caco-2 [12] = assay: as above
Calu-3 [13] = assay: as above
U2OS [14] = assay: as above
Vero E6 [15] = assay: as above

Structure (SMILES)	drug sensitivity score (HepG2 [1])	drug sensitivity score (Caco-2 [2])	drug sensitivity score (Calu-3 [3])	drug sensitivity score (U2OS [4])	drug sensitivity score (Vero E6 [5])	relative viability EC50 (HepG2 [6])	relative viability EC50 (Caco-2 [7])	relative viability EC50 (Calu-3 [8])	relative viability EC50 (U2OS [9])	relative viability EC50 (Vero E6 [10])	cell viability (HepG2 [11]; 1 nM)	cell viability (HepG2 [11]; 10 nM)	cell viability (HepG2 [11]; 100 nM)	cell viability (HepG2 [11]; 1000 nM)	cell viability (HepG2 [11]; 10000 nM)	cell viability (Caco-2 [12]; 1 nM)	cell viability (Caco-2 [12]; 10 nM)	cell viability (Caco-2 [12]; 100 nM)	cell viability (Caco-2 [12]; 1000 nM)	cell viability (Caco-2 [12]; 10000 nM)	cell viability (Calu-3 [13]; 1 nM)	cell viability (Calu-3 [13]; 10 nM)	cell viability (Calu-3 [13]; 100 nM)	cell viability (Calu-3 [13]; 1000 nM)	cell viability (Calu-3 [13]; 10000 nM)	cell viability (U2OS [14]; 1 nM)	cell viability (U2OS [14]; 10 nM)	cell viability (U2OS [14]; 100 nM)	cell viability (U2OS [14]; 1000 nM)	cell viability (U2OS [14]; 10000 nM)	cell viability (Vero E6 [15]; 1 nM)	cell viability (Vero E6 [15]; 10 nM)	cell viability (Vero E6 [15]; 100 nM)	cell viability (Vero E6 [15]; 1000 nM)	cell viability (Vero E6 [15]; 10000 nM)
CC(C)c1ccc(CC(=O)N2CCC[C@@H](c3cccc(OC(C)(C)C(=O)O)c3)C2)cc1	0	0	0	0	0	> 10 µM	> 10 µM	> 10 µM	> 10 µM	> 10 µM	98.3%	106%	104%	106%	108%	92.6%	100%	93.2%	97.6%	96.2%	87.3%	94.5%	104%	108%	98.6%	103%	99.5%	99.7%	99.6%	103%	106%	103%	101%	97.4%	96.8%
CC(O)(C(=O)Nc1ccc(S(=O)(=O)c2ccccc2)cc1)C(F)(F)F (stereo not given)	0	0	2.1	0	0	> 10 µM	> 10 µM	> 10 µM	> 10 µM	> 10 µM	100%	90.8%	96.4%	102%	109%	94.9%	90.6%	97%	107%	95.9%	101%	98.1%	99.8%	82.2%	89.1%	99.2%	100%	97.4%	104%	102%	98.4%	93.1%	97.9%	89.6%	95.3%
CC1(C)CCC(C)(C)c2c1cc(C(=O)Nc1cc(F)c(C(=O)O)c(F)c1)c(O)c2Cl	0	0.8	1.9	0	0	> 10 µM	> 10 µM	> 10 µM	> 10 µM	> 10 µM	102%	105%	115%	112%	92.7%	105%	94.3%	96%	86.9%	85.7%	105%	92.8%	89.9%	86.5%	85.7%	100%	96.9%	90.7%	97.2%	92.7%	95.4%	105%	105%	94.2%	95.5%
CN1CCC(c2c[nH]c3ccc(O)cc23)CC1	0	0	0	0	0	> 10 µM	> 10 µM	> 10 µM	> 10 µM	> 10 µM	98.5%	96%	94.4%	83.4%	100%	98.7%	100%	95.4%	100%	92.1%	91.9%	92.8%	87.9%	98.7%	90.3%	98%	103%	98.7%	102%	95.8%	105%	102%	98.8%	91.7%	101%
CN1CCN(C(=O)c2cc3cc(Cl)ccc3[nH]2)CC1	0	0	0	0	0	> 10 µM	> 10 µM	> 10 µM	> 10 µM	> 10 µM	98.1%	104%	92.5%	116%	94.8%	103%	107%	102%	89.9%	109%	110%	89.7%	106%	93.7%	93.8%	99.9%	100%	104%	103%	95.6%	97.3%	96.3%	98.6%	100%	99.8%
CNCCN(C)Cc1c[nH]nc1-c1ccc(O[C@H]2C[C@H](OCCC3CCOCC3)C2)cc1	0	0	0	0	0	> 10 µM	> 10 µM	> 10 µM	> 10 µM	> 10 µM	98%	102%	109%	96.8%	90.9%	99.7%	100%	107%	90.4%	99.6%	96.2%	97.3%	94.1%	100%	100%	99.5%	97.6%	100%	96.4%	97%	100%	105%	95.9%	102%	101%
COc1cc(OC)c(C(=O)CCCCN2CCC3(CC2)NC(=O)NC3=O)cc1NS(=O)(=O)c1ccc(C(F)(F)F)cc1	0	0	0	0	0	> 10 µM	> 10 µM	> 10 µM	> 10 µM	> 10 µM	102%	111%	95.3%	89.1%	105%	102%	103%	107%	98.7%	93.6%	98.2%	108%	81.2%	93.9%	93.6%	98.8%	106%	99.7%	101%	94.7%	103%	106%	102%	99.5%	99.7%
COc1ccc(Oc2c(Cl)cnn(C3c4ccccc4-c4ccccc43)c2=O)cc1	0	0	0	0	0	> 10 µM	> 10 µM	> 10 µM	> 10 µM	> 10 µM	103%	99.8%	93.5%	108%	100%	98.7%	95%	97%	101%	88.7%	110%	99.9%	96.4%	101%	101%	102%	95.1%	94.3%	97.9%	95.5%	92.6%	107%	94.7%	96.4%	99.6%
COc1ccc2c(c1)C(C(=O)N(Cc1ccc(N(C)C)cc1)c1ccc(C(C)C)cc1)CCC2 (stereo not given)	0	1.5	0	0	0	> 10 µM	> 10 µM	> 10 µM	> 10 µM	> 10 µM	99.8%	109%	98.5%	109%	102%	105%	96.3%	105%	95.9%	75.5%	90.3%	98.9%	96.9%	88%	107%	102%	100%	102%	98.2%	100%	101%	103%	99.3%	103%	105%
COc1nccc(-c2c(-c3ccc(F)cc3)ncn2[C@H]2CC[C@H](O)CC2)n1	0	0	3.8	0	0	> 10 µM	> 10 µM	> 10 µM	> 10 µM	> 10 µM	98.9%	97.6%	103%	104%	108%	84.5%	90.9%	93.1%	88.6%	93.9%	99.5%	106%	82.2%	81.7%	85.6%	95.9%	102%	93.5%	98.7%	98.8%	94.7%	94.3%	92.7%	87.5%	101%
C[C@@]1(c2cc(-c3cncnc3)c(F)cc2F)CCSC(N)=N1	0	0	0	0	0	> 10 µM	> 10 µM	> 10 µM	> 10 µM	> 10 µM	106%	112%	101%	108%	97.3%	98.7%	92.8%	92.3%	95.1%	99.4%	98%	104%	102%	101%	101%	102%	97.5%	102%	97.4%	100%	105%	103%	105%	101%	96%
O=C(Nc1ccc(C(F)(F)F)cn1)N1CCN(c2ncccc2C(F)(F)F)CC1	0	0	0	0	0	> 10 µM	> 10 µM	> 10 µM	> 10 µM	> 10 µM	108%	91.7%	105%	98.4%	101%	97.9%	99.3%	97%	96%	92.1%	99.3%	104%	93%	100%	92.8%	94.1%	98.5%	102%	99.4%	100%	102%	93.9%	94.9%	101%	103%
O=C(Nc1ccccc1Br)N[C@@H]1CCN(c2ccc(C(F)(F)F)cn2)C1	0	0	0	0	0	> 10 µM	> 10 µM	> 10 µM	> 10 µM	> 10 µM	103%	106%	103%	97.8%	99.2%	86.7%	97.2%	97.9%	98%	86.9%	96.1%	98.5%	97.1%	97.4%	96.8%	98.9%	102%	97.4%	104%	94.7%	108%	100%	103%	99.8%	96.9%
